In patent US9637493B2, “Substituted pyrrolopyrimidines as HDM2 inhibitors” (Merck Sharp & Dohme Corp., priority 2012, dated 2017):

Biological target: HDM2 (Homo sapiens (Human), UniProt Q00987)
Experiment: HDM2 FRET assay (inhibition of p53 peptide binding to HDM2)
Conditions: truncated HDM2 residues 17 to 125, 0.5 nM; FITC labeled 8-mer peptide 3 nM; two hour incubation at room temperature
Method: Methods: An HDM2 FRET assay was developed to assess the compounds' inhibitory activity towards binding of p53 protein. […] (containing p53 binding surface, Science (1994) 265, 346-355), with N-terminal His and Thioredoxin tag was generated in pET32a expression vector and expressed in E. coli strain BL21(DE3)Rosetta. Protein was purified using Ni-affinity chromatography, followed by size exclusion chromatography using Superdex 75 26/60 column. […] After two hour incubation at room temperature in a humidified chamber plates were read on EnVision plate reader with the following settings: excitation: UV, […], two emission filters: 520 nm and 495 nm respectively. […] IC50 DETERMINATIONS: Dose-response curves were plotted from the inhibition data, from 10 point serial dilutions of inhibitory compounds. Concentration of compound was plotted against em520/Cem495 ratio signal. To generate IC50 values, the dose-response curves were fitted to a standard sigmoidal curve and IC50 values were derived by nonlinear regression analysis.

Chain of HDM2 (Q00987 17-125): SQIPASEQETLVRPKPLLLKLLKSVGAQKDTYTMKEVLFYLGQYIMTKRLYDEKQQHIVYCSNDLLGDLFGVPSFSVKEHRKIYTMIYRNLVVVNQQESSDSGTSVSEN

Q: Which IC50 does the source give for `Cc1ccnc(-c2cc3nc(C(=O)O)nc(N[C@H](C)C4CCC4)c3n2Cc2ccc(C(F)(F)F)cc2)c1` [Example 1.9, 4-{[(1R)-1-cyclobutylethyl]amino}-6-(4-methylpyridin-2-yl)-5-[4-(trifluoromethyl)benzyl]-5H-pyrrolo[3,2-d]pyrimidine-2-carboxylic acid] here?
A: The IC50 was 18 nM.

Q: For `Cc1cccc(-c2cc3nc(C(=O)O)nc(N[C@H](C)C4CCC4)c3n2Cc2ccc(C(F)(F)F)nc2)c1` [Example 3.3, 4-{[(1R)-1-cyclobutylethyl]amino}-6-(3-methylphenyl)-5-{[6-(trifluoromethyl)pyridin-3-yl]methyl}-5H-pyrrolo[3,2-d]pyrimidine-2-carboxylic acid], which IC50 is on record?
A: Its IC50 is 178 nM.

Q: Which IC50 does the source give for `Cc1cn(C[C@H]2CC[C@H](C)CC2)c2c(-c3cccc(Cl)c3)nc(C(=O)O)nc12` [Example 5.1, 4-(3-chlorophenyl)-7-methyl-5-[(trans-4-methylcyclohexyl)methyl]-5H-pyrrolo[3,2-d]pyrimidine-2-carboxylic acid] here?
A: Its IC50 is 226 nM.

Q: Which IC50 does the source give for `Cc1c(-c2cc(C(C)C)ccn2)n(Cc2ccc(C(F)(F)F)cc2)c2c(N[C@H](C)C3CCC3)nc(C(=O)O)nc12` [Example 1.11, 4-{[(1R)-1-cyclobutylethyl]amino}-7-methyl-6-[4-(1-methylethyl)pyridin-2-yl]-5-[4-(trifluoromethyl)benzyl]-5H-pyrrolo[3,2-d]pyrimidine-2-carboxylic acid] here?
A: Its IC50 is 50 nM.

Q: For `Cc1ccc(Cl)c(-c2cn(Cc3ccc(C(F)(F)F)cc3)c3c(N[C@H](C)C4CCC4)nc(C(=O)O)nc23)c1` [Example 1.8, 7-(2-chloro-5-methylphenyl)-4-{[(1R)-1-cyclobutylethyl]amino}-5-[4-(trifluoromethyl)benzyl]-5H-pyrrolo[3,2-d]pyrimidine-2-carboxylic acid], which IC50 is on record?
A: The IC50 was 712 nM.

Q: How did the IC50 turn out when `C[C@H]1CC[C@H](Cn2ccc3nc(C(=O)O)nc(-c4cncc(Cl)c4)c32)CC1` [Example 4.3, 4-(5-chloropyridin-3-yl)-5-[(trans-4-methylcyclohexyl)methyl]-5H-pyrrolo[3,2-d]pyrimidine-2-carboxylic acid] was run?
A: The IC50 was 247 nM.

Q: Which IC50 does the source give for `Cc1cccc(-c2c(C)c3nc(C(=O)O)nc(N[C@H](C)C4CCC4)c3n2Cc2ccc(C(F)(F)F)cc2)c1` [Example 1.4, (R)-4-((1-cyclobutylethyl)amino)-7-methyl-6-(m-tolyl)-5-(4-(trifluoromethyl)benzyl)-5H-pyrrolo[3,2-d]pyrimidine-2-carboxylic acid] here?
A: Its IC50 is 130 nM.

Q: `Cc1ccc(F)c(-c2cc3nc(C(=O)O)nc(N[C@H](C)C4CCC4)c3n2Cc2ccc(C(F)(F)F)cc2)c1` [Example 1.1, (R)-4-((1-cyclobutylethyl)amino)-6-(2-fluoro-5-methylphenyl)-5-(4-(trifluoromethyl)benzyl)-5H-pyrrolo[3,2-d]pyrimidine-2-carboxylic acid] was tested. Which IC50 did it give?
A: Its IC50 is 62 nM.

Q: How did the IC50 turn out when `C[C@H]1CC[C@H](Cn2ccc3nc(-c4noc(=O)[nH]4)nc(-c4cncc(Cl)c4)c32)CC1` [Example 4.4, 3-{4-(5-chloropyridin-3-yl)-5-[(trans-4-methylcyclohexyl)methyl]-5H-pyrrolo[3,2-d]pyrimidin-2-yl}-1,2,4-oxadiazol-5(4H)-one] was run?
A: The IC50 was 57 nM.

Q: `COc1ccc(C)cc1-c1cc2nc(C(=O)O)nc(N[C@H](C)C3CCC3)c2n1Cc1ccc(C(F)(F)F)cc1` [Example 1.5, 4-{[(1R)-1-cyclobutylethyl]amino}-6-(2-methoxy-5-methylphenyl)-5-[4-(trifluoromethyl)benzyl]-5H-pyrrolo[3,2-d]pyrimidine-2-carboxylic acid] was tested. Which IC50 did it give?
A: The IC50 was 42 nM.

Q: How did the IC50 turn out when `CC(C)Cc1cn(C[C@H]2CC[C@H](C)CC2)c2c(-c3cncc(Cl)c3)nc(-c3noc(=O)[nH]3)nc12` [Example 5.8, 3-[4-(5-chloropyridin-3-yl)-5-[(trans-4-methylcyclohexyl)methyl]-7-(2-methylpropyl)-5H-pyrrolo[3,2-d]pyrimidin-2-yl]-1,2,4-oxadiazol-5(4H)-one] was run?
A: Its IC50 is 35 nM.

Q: `Cc1cn(C[C@H]2CC[C@H](C)CC2)c2c(-c3cncc(Cl)c3)nc(-c3noc(=O)[nH]3)nc12` [Example 5.4, 3-{4-(5-chloropyridin-3-yl)-7-methyl-5-[(trans-4-methylcyclohexyl)methyl]-5H-pyrrolo[3,2-d]pyrimidin-2-yl}-1,2,4-oxadiazol-5(4H)-one] was tested. Which IC50 did it give?
A: Its IC50 is 36 nM.

Q: Which IC50 does the source give for `Cc1cccc(-c2cc3nc(C(=O)O)nc(N[C@H](C)C4CCC4)c3n2Cc2ccc(C(F)(F)F)cc2N)c1` [Example 2.1, 5-[2-amino-4-(trifluoromethyl)benzyl]-4-{[(1R)-1-cyclobutylethyl]amino}-6-(3-methylphenyl)-5H-pyrrolo[3,2-d]pyrimidine-2-carboxylic acid] here?
A: Its IC50 is 11 nM.

Q: For `Cc1cccc(-c2cc3nc(C(=O)O)nc(N[C@H](C)C4CCC4)c3n2Cc2ccc(C(F)(F)F)cc2)c1` [Example 1.3, (R)-4-((1-cyclobutylethyl)amino)-6-(m-tolyl)-5-(4-(trifluoromethyl)benzyl)-5H-pyrrolo[3,2-d]pyrimidine-2-carboxylic acid], which IC50 is on record?
A: The IC50 was 140 nM.

Q: How did the IC50 turn out when `C[C@H]1CC[C@H](Cn2c(C(F)c3ccccc3F)cc3nc(-c4noc(=O)[nH]4)nc(-c4cncc(Cl)c4)c32)CC1` (stereo partly drawn) [Example 8.2, 3-{4-(5-chloropyridin-3-yl)-6-[fluoro(2-fluorophenyl)methyl]-5-[(trans-4-methylcyclohexyl)methyl]-5H-pyrrolo[3,2-d]pyrimidin-2-yl}-1,2,4-oxadiazol-5(4H)-one] was run?
A: The IC50 was 2 nM.

Q: Which IC50 does the source give for `Cc1cccc(-c2cc3nc(C(=O)O)nc(N[C@H](C)C4CCC4)c3n2Cc2ccc(Br)c(F)c2)c1` [Example 3.4, 5-(4-bromo-3-fluorobenzyl)-4-{[(1R)-1-cyclobutylethyl]amino}-6-(3-methylphenyl)-5H-pyrrolo[3,2-d]pyrimidine-2-carboxylic acid] here?
A: Its IC50 is 15 nM.

Q: `CC(C)c1ccnc(-c2cc3nc(C(=O)O)nc(N[C@H](C)C4CCC4)c3n2Cc2ccc(C(F)(F)F)cc2)c1` [Example 1.10, 4-{[(1R)-1-cyclobutylethyl]amino}-6-[4-(1-methylethyl)pyridin-2-yl]-5-[4-(trifluoromethyl)benzyl]-5H-pyrrolo[3,2-d]pyrimidine-2-carboxylic acid] was tested. Which IC50 did it give?
A: Its IC50 is 26 nM.

Q: How did the IC50 turn out when `C[C@@H](Nc1nc(C(=O)O)nc2cc(-c3ccc4occc4c3)n(Cc3ccc(C(F)(F)F)cc3)c12)C1CCC1` [Example 1.6, 6-(1-benzofuran-5-yl)-4-{[(1R)-1-cyclobutylethyl]amino}-5-[4-(trifluoromethyl)benzyl]-5H-pyrrolo[3,2-d]pyrimidine-2-carboxylic acid] was run?
A: The IC50 was 105 nM.

Q: How did the IC50 turn out when `Cc1cccc(-c2cc3nc(C(=O)O)nc(N[C@H](C)C4CCC4)c3n2Cc2ccc(F)c(F)c2)c1` [Example 3.5, 4-{[(1R)-1-cyclobutylethyl]amino}-5-(3,4-difluorobenzyl)-6-(3-methylphenyl)-5H-pyrrolo[3,2-d]pyrimidine-2-carboxylic acid] was run?
A: The IC50 was 126 nM.

Q: With `Cc1cn(C[C@H]2CC[C@H](C)CC2)c2c(-c3cncc(Cl)c3)nc(C(=O)O)nc12` [Example 5.3, 4-(5-chloropyridin-3-yl)-7-methyl-5-[(trans-4-methylcyclohexyl)methyl]-5H-pyrrolo[3,2-d]pyrimidine-2-carboxylic acid] as the molecule, how does the IC50 read?
A: The IC50 was 88 nM.

Q: Which IC50 does the source give for `Cc1cccc(-c2cc3nc(C(=O)O)nc(N[C@H](C)C4CCC4)c3n2Cc2ccc(C(F)(F)F)c(F)c2)c1` [Example 2.7, 4-{[(1R)-1-cyclobutylethyl]amino}-5-[3-fluoro-4-(trifluoromethyl)benzyl]-6-(3-methylphenyl)-5H-pyrrolo[3,2-d]pyrimidine-2-carboxylic acid] here?
A: Its IC50 is 87 nM.

Q: Which IC50 does the source give for `C[C@H]1CC[C@H](Cn2cc(Cc3cccnc3)c3nc(-c4noc(=O)[nH]4)nc(-c4cncc(Cl)c4)c32)CC1` [Example 7.1, 3-[4-(5-chloropyridin-3-yl)-5-[(trans-4-methylcyclohexyl)methyl]-7-(pyridin-3-ylmethyl)-5H-pyrrolo[3,2-d]pyrimidin-2-yl]-1,2,4-oxadiazol-5(4H)-one] here?
A: The IC50 was 52 nM.

Q: Which IC50 does the source give for `C[C@H]1CC[C@H](Cn2cc(-c3ccccc3)c3nc(C(=O)O)nc(-c4cncc(Cl)c4)c32)CC1` [Example 5.5, 4-(5-chloropyridin-3-yl)-5-[(trans-4-methylcyclohexyl)methyl]-7-phenyl-5H-pyrrolo[3,2-d]pyrimidine-2-carboxylic acid] here?
A: Its IC50 is 72 nM.

Q: Which IC50 does the source give for `Cc1cccc(-c2cc3nc(C(=O)O)nc(N[C@H](C)C4CCC4)c3n2Cc2ccc(C(F)(F)F)cn2)c1` [Example 2.2, 4-{[(1R)-1-cyclobutylethyl]amino}-6-(3-methylphenyl)-5-{[5-(trifluoromethyl)pyridin-2-yl]methyl}-5H-pyrrolo[3,2-d]pyrimidine-2-carboxylic acid] here?
A: Its IC50 is 844 nM.

Q: `Cc1cccc(-c2cc3nc(C(=O)O)nc(N[C@H](C)C4CCC4)c3n2Cc2ccc(OC(F)F)cc2)c1` [Example 2.6, 4-{[(1R)-1-cyclobutylethyl]amino}-5-[4-(difluoromethoxy)benzyl]-6-(3-methylphenyl)-5H-pyrrolo[3,2-d]pyrimidine-2-carboxylic acid] was tested. Which IC50 did it give?
A: Its IC50 is 1780 nM.

Q: How did the IC50 turn out when `C[C@H]1CC[C@H](Cn2ccc3nc(C(=O)O)nc(-c4cccc(Cl)c4)c32)CC1` [Example 4.1, 4-(3-chlorophenyl)-5-[(trans-4-methylcyclohexyl)methyl]-5H-pyrrolo[3,2-d]pyrimidine-2-carboxylic acid] was run?
A: The IC50 was 294 nM.

Q: How did the IC50 turn out when `Cc1cccc(-c2cc3nc(C(=O)O)nc(N[C@H](C)C4CCC4)c3n2Cc2ccc(OC(F)(F)F)cc2)c1` [Example 2.3, 4-{[(1R)-1-cyclobutylethyl]amino}-6-(3-methylphenyl)-5-[4-(trifluoromethoxy)benzyl]-5H-pyrrolo[3,2-d]pyrimidine-2-carboxylic acid] was run?
A: Its IC50 is 348 nM.
